Consider five molecules from patent US8664400B2, “Triphenylamine derivatives useful as fluorophores in biology, in particular for two-photon microscopy” (Centre National de la Recherche Scientifique, priority 2006, dated 2014).

Like-named read-outs stand apart in the source and are kept apart here.

Series [1] can be described thus: Photostability under irradiation with a 150 W xenon-mercury lamp. The series is classed as physicochemical. The settings on record: about thirty minutes.
A short description of series [2]: Emission and single-photon absorption properties in glycerol or sodium cacodylate buffer. Format: physicochemical.
Series [3] concerns duplex DNA of 26 base pairs of self-complementary sequence (ds26). The experiment in a line: Single-photon absorption and fluorescence emission in the presence of DNA. The series is classed as binding. The settings on record: for ΦF (quantum fluorescence yield) / ε / λabs. / λem.: DNA.
Series [4] in a line: Two-photon absorption by two-photon-induced fluorescence (TPIF). Format: physicochemical. As for the experimental part: (§1) The two-photon absorption properties of the compounds according to the invention were assessed using the two-photon-induced fluorescence (TPIF) technique and by means of a Titanium:Sapphire femtosecond laser source with pulses of 90 fs to 76 MHz which can be tuned to 750-840 nm.

The target of another series is ds26 DNA. The experiment in a line: Affinity for DNA by fluorometric titration. The series is classed as binding. The following applies: 10 mM sodium cacodylate buffer, pH 7.0, 100 mM NaCl.
The test system of another series is herring testis DNA. The experiment in a line: Two-photon absorption (TPIF) in the presence of DNA. Format: physicochemical. The settings on record: for two-photon spectra in presence of DNA compared with glycerol: sodium cacodylate buffer 10 mM, pH 7.3, 5 equivalents herring testis DNA, all excitation wavelengths. The protocol:
as §1

A further series concerns CHO K1 cells. The experiment in a line: Epifluorescence and confocal microscopy of fixed, treated cells. The series is classed as cell-based, Chinese hamster. As for the experimental part:
The CHO-K1 cells, cultured beforehand in wells, on glass supports coated with polyornithine, containing a commercially available standard culture medium, were fixed using a formaldehyde (4%) solution in PBS.
The cells were then incubated, at room temperature and for 20 minutes, in the presence of the markers or mixtures of markers to be tested (in aqueous solution) and then washed with PBS buffer (13 mM NaCl, 0.27 mM KCl, 0.15 mM KH2PO4, 0.8 mM Na2HPO4, pH 7.4) in order to remove the excess marker. […] The cells were then prepared conventionally for microscopic examination.
Epifluorescence microscopy examinations were carried out with a Nikon Eclipse E 800 microscope fitted with a 60× (1.4) lens and a Nikon DXM 1200 digital apparatus, while the confocal microscopy examinations were carried out with a Leica DM6000 microscope comprising an SP2 unit equipped with a 63× (1.4) lens and an HeNe laser for excitation of the markers.

The conditions of series [5]: according to the literature; cited from earlier work.
For series [6] the following is noted: 36 μM, 20° C.; cited from earlier work.
Setting [7] is: 10 mM sodium cacodylate, pH 7.0, 5 μM compound, 0.5 to 5 equivalents ds26.

For `CN1C(=CC=Cc2cc[n+](CCC[N+](C)(C)C)c3ccccc23)Sc2ccccc21.[I-].[I-]` [TO-PRO-3, 1-(N,N,N-trimethylaminopropyl)-4-{2-[3-methyl-2,3-dihydro-(benzo-1,3-thiazole)-2-ethylidene]vinyl}quinolinium iodide, reference compound], in [1], the “decrease of fluorescence emission during irradiation” value is “more than 40%”.
As for `C[n+]1ccc(C=Cc2ccc(N(c3ccccc3)c3ccc(C=Cc4cc[n+](C)cc4)cc3)cc2)cc1.[I-].[I-]` [TP-2Py, Bis[4-(2-N-methylpyridinium-4-ylvinyl)phenyl]phenylamine iodide], in series [2] (Na cacodyl.), the ε was 39 800 L/mol · cm and the λabs. is 474 nm. Besides, in series [2] (glyc.), the “ΦF (quantum fluorescence yield)” value came out at 0.112, the ε was 37 400 L/mol · cm, the λabs. stood at 491 nm and the λem. was 656 nm. Besides, in series [2] (in glycerol, at 474 nm), the “molar extinction coefficient (ε)” value is 37 400 L/mol·cm. For the same molecule, in series [3] (setting [7]), the “hypochromism caused by the presence of DNA” value is “about 20%” and the “shift of absorption spectra caused by the presence of DNA” value was “shift towards the red region”. Also, in [3], the “ΦF (quantum fluorescence yield)” value came to 0.07, the ε was 31 400 L/mol · cm, the λabs. was 509 nm and the λem. is reported as 665 nm. Moreover, the “δ (efficient two-photon absorption section)” value in [4] (glyc.) was found to be 315 GM. Further, the “wavelength of relative maximum of two-photon absorption” value in series [4] (in glycerol) is about 820 nm. Also, the “dissociation constant Kd” value at ds26 DNA is “of the order of the micromolar”. In addition, the “δ (efficient two-photon absorption section)” value in the series on herring testis DNA (DNA) turned out to be 200 GM. Moreover, the “two-photon spectra in presence of DNA compared with glycerol” value in the series with herring testis DNA is on record as “identical to those previously observed in glycerol”.
For `C[n+]1ccc(C=Cc2ccc(N(c3ccc(C=Cc4cc[n+](C)cc4)cc3)c3ccc(C=Cc4cc[n+](C)cc4)cc3)cc2)cc1.[I-].[I-].[I-]` [TP-3Py, Tris[4-(2-N-methylpyridinium-4-ylvinyl)phenyl]amine iodide], the “effect of irradiation on fluorescence emission” value in [1] is “scarcely modified”. Further, in [2] (Na cacodyl.), the ε was 59 000 L/mol · cm and the λabs. worked out at 474 nm. In addition, in series [2] (glyc.), the “ΦF (quantum fluorescence yield)” value is listed as 0.123, the ε was 66 000 L/mol · cm, the λabs. was determined as 491 nm and the λem. worked out at 665 nm. The “hypochromism caused by the presence of DNA” value in [3] (setting [7]) is “about 20%”. Further, in series [3], the “ΦF (quantum fluorescence yield)” value turned out to be 0.021, the ε was 51 000 L/mol · cm, the λabs. was 499 nm and the λem. came to 684 nm. The “image quality of chromosomes” value with CHO K1 cells (CHO K1 cells in mitosis, 2 μM, phase contrast and confocal microscopies coupled) was “very high degree of sharpness and a high resolution”. Also, the “location of fluorescence in cells” value in the series on CHO K1 cells (fixed CHO K1 cells, 2 μM compound with DAPI 3 μM, 20 minutes, epifluorescence microscopy) is reported as “located exclusively in the nucleus”. Also, the “stability at the focal point of the microscope lens” value with CHO K1 cells (fixed CHO K1 cells, 2 μM, epifluorescence microscopy) is recorded as “very stable”. Besides, in the series on herring testis DNA, the “two-photon spectra in presence of DNA compared with glycerol” value is “identical to those previously observed in glycerol”.
Turning to `C(=Cc1ccc(N(c2ccc(C=Cc3ccncc3)cc2)c2ccc(C=Cc3ccncc3)cc2)cc1)c1ccncc1` [tris[4-(2-pyridin-4-ylvinyl)phenyl]amine, reference compound], the two-photon excitation maximum entry in series [4] (in dichloromethane) is recorded as “around 820 nm”. Besides, the “efficient two-photon absorption section” value in series [4] (measurements performed by the Inventors, in dichloromethane) is on record as 90 GM; in [5] it was 58 GM.
For the molecule `CN1C(=Cc2cc[n+](C)c3ccccc23)Sc2ccccc21` [thiazole orange], in series [6], the “form in aqueous medium (aggregation)” value was “in the form of dimers”.
